Results as given in patent publication US10391150B2, “Treatments for migraine and related disorders” (The University of Chicago, priority 2011, dated 2019).
Entries after “also recorded” stand apart in the source; their conditions may differ. Read-outs that look alike come from different tables or passages of the source.

Assays:
Type in all cases: cell-based, rat
[1] = test system: CA3 area evoked excitability; set-up: key to evoked excitability response rating: a normal field potential (FP; left) was rated “1”; a FP that included stimulus-related bursting activity (center) was rated “2”; a stimulus that resulted in spreading depression (right) was rated is a “3”; conditions: for evoked excitability versus control: H2O2 exposure
Experimental: FIGS. 11a-11g IGF-1 decreased CA3 oxidative stress (OS) and its related hyperexcitability. […] Relative evoked excitability was determined as a sum of responses seen (e.g., responses of “2” and a “3” yielded an overall excitability score of five). […] (FIGS. 11d-e) Exemplary images of control (FIG. 11d) slice culture OS compared to increased slice OS induced by exposure to menadione (FIG. 11e). Calibration bar, 200 Dotted boxes indicate CA3 areas of interest used for relative OS quantifications (f and g).

[2] = test system: CA3 pyramidal neuron spontaneous activity; experiment: Spontaneous CA3 pyramidal neuron spiking / bursting in slice cultures
Experimental: FIGS. 12a-12e IGF-1 increased spontaneous neuronal spiking activity. (FIG. 12a) Exemplary recording of unstimulated control CA3 pyramidal layer spontaneous electrophysiological activity. (FIG. 12b) Exemplary recording of 3-day IGF-1-exposed CA3 pyramidal layer spontaneous electrophysiological activity. […] Seven day treatments consisted of IGF-1 exposure for only 12 hours daily. Comparisons between groups made via ANOVA plus Holm-Sidak post hoc testing.

TNF-α mRNA = TNF-α mRNA after SD in slice cultures; conditions: two hours after SD evoked every 7-9 minutes for an hour
From the text: This prompted the inventors to examine whether insulin could reduce SD susceptibility by increasing CA3 pyramidal neuron bursting. The inventors induced SD trans-synaptically in rat HSC using electrical stimuli (100 μs pulses @ 10 Hz for 1 s) ranging from 1 to 10,000 nC in order to determine SD threshold in sham and experimental groups (Pusic et al., 2011). Results were based on n≥3-6/group. […] This insulin dose approximates the pharmacological levels seen in humans treated with nasal insulin. […] The inventors hypothesized that the effect of insulin occurred through IGF-1 receptor cross-talk.
After an hour of SD, slices were allowed to recover for 2 hours and then harvested for total RNA isolation and PCR amplification of cytokine targets. […] Next, dilution curve amplifications of primers were checked to be sure primers produced uniform amplification differences. For example, optimal amplifications show a uniform increase in Ct thresholds. In contrast, amplifications are not uniform with defective primers.
These positive samples were used for PCR array screening. Next, PCR array technology was used as a means more sensitive than traditional gene chips to look for evidence of T-cells in adult hippocampal slice cultures. The gene expression screen for inflammatory cytokine changes was completed by RT^2 Profiler™ PCR Arrays.

[3] = test system: OS in microglia and astrocytes of hippocampal slice cultures; experiment: Cell-specific OS from SD (CellROX, confocal microscopy); conditions: IGF-1 100 ng/mL for three days
From the text: FIG. 13 Oxidative stress from SD preferentially rises in astrocytes and microglia, with the latter effect mitigated by IGF-1. The inventors have recently shown that spreading depression (SD), the most likely cause of migraine aura and perhaps migraine (Lauritzen and Kraig, 2005), occurs with increased oxidative stress (OS) and that OS, in turn, increases SD susceptibility (Grinberg et al., 2012). Reactive oxygen and nitrogen species that cause OS have both autocrine and paracrine signaling capacities that can affect SD susceptibility by altering excitability (Kishida and Klann, 2007). Accordingly, the inventors looked for the cellular origin of OS from SD. Here the inventors used hippocampal slice cultures (HSC) to probe for cell-specific changes in OS from SD. SD was induced trans-synaptically in rat HSCs using bipolar electrical stimuli at the dentate gyrus (Pusic et al., 2011). Six SDs were induced every 7-9 min over an hr, followed by 24 hr incubation in CellROX™, a fixable fluorogenic probe for measuring OS (Grinberg et al., 2012). HSCs were then fixed in 10% buffered formalin phosphate. Other fixatives (PLP, 4% paraformaldehyde) prevented detection of OS change. Tissue was then labeled for neurons (anti-NeuN), oligodendrocytes (anti-RIP), astrocytes (anti-GFAP), or for microglia (isolectin GS-IB4). […]

## Insulin-like growth factor 1 [IGF-1]
[1]; without or with IGF-1 pretreatment for 3 days
  evoked excitability versus control: abrogated; also recorded: non-significant difference from control
[1]; without or with acute IGF-1, 30 minutes after H2O2
  evoked excitability versus control: abrogated
[1]; IGF-1 exposure alone
  CA3 area evoked excitability: no significant impact
  evoked excitability response rating: 1
[2]; 3-day IGF-1 treatment
  spontaneous CA3 pyramidal neuron bursting versus control: increase in spontaneous CA3 pyramidal neuron bursting
[2]; 7-day IGF-1 treatment, 12 hours daily
  spontaneous CA3 pyramidal neuron bursting versus control: increase in spontaneous CA3 pyramidal neuron bursting
[2]; acute IGF-1 treatment
  spontaneous CA3 pyramidal neuron spiking versus control: increase in spontaneous CA3 pyramidal neuron spiking
TNF-α mRNA
  TNF-α mRNA levels: did not involve a change in TNF-α mRNA levels
[3]
  OS from SD in microglia: decreased
  astrocytic OS from SD: unchanged
